Assay results as given in patent US11078202B2, “β-lactamase inhibitor and use thereof” (priority 2018, dated 2021).
Where a name gives a salt, the structure may show the parent alone.

Columns and labels:
Type in all cases: cell-based
[1] = system: Acinetobacter baumannii XNWB 0007; test: MIC assay of test compounds combined with ceftazidime (8 μg/mL); conditions: ceftazidime 8 μg/mL fixed
Method in brief: (§1)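 Checkerboard-free combination MIC: test compound titrated against a constant partner antibiotic in cation-adjusted Mueller-Hinton broth. Inocula prepared from TSA colonies at OD600 0.1-0.15, diluted 300×. Plates shaken, incubated under normal atmosphere at 35±2 °C for 16-20 h; endpoints taken following CLSI.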

[2] = system: Klebsiella pneumoniae XNWB 0001; test: as above; conditions: ceftazidime 8 μg/mL fixed
Method in brief: as §1

[3] = system: Klebsiella pneumoniae XNWB 0002; test: as above; conditions: ceftazidime 8 μg/mL fixed
Method in brief: as §1

[4] = system: Klebsiella pneumoniae XNWB 0003; test: as above; conditions: ceftazidime 8 μg/mL fixed
Method in brief: as §1

[5] = system: Klebsiella pneumoniae XNWB 0004; test: as above; conditions: ceftazidime 8 μg/mL fixed
Method in brief: as §1

[6] = system: Klebsiella pneumoniae XNWB 0005; test: as above; conditions: ceftazidime 8 μg/mL fixed
Method in brief: as §1

[7] = system: Klebsiella pneumoniae XNWB 0006; test: as above; conditions: ceftazidime 8 μg/mL fixed
Method in brief: as §1

[8] = system: Pseudomonas aeruginosa XNWB 0008; test: as above; conditions: ceftazidime 8 μg/mL fixed
Method in brief: as §1

[9] = system: Acinetobacter baumannii XNWB 0007; test: MIC assay of test compounds combined with imipenem (4 μg/mL); conditions: imipenem 4 μg/mL fixed
Method in brief: as §1

[10] = system: Klebsiella pneumoniae XNWB 0001; test: as above; conditions: imipenem 4 μg/mL fixed
Method in brief: as §1

[11] = system: Klebsiella pneumoniae XNWB 0002; test: as above; conditions: imipenem 4 μg/mL fixed
Method in brief: as §1

[12] = system: Klebsiella pneumoniae XNWB 0003; test: as above; conditions: imipenem 4 μg/mL fixed
Method in brief: as §1

[13] = system: Klebsiella pneumoniae XNWB 0004; test: as above; conditions: imipenem 4 μg/mL fixed
Method in brief: as §1

[14] = system: Klebsiella pneumoniae XNWB 0005; test: as above; conditions: imipenem 4 μg/mL fixed
Method in brief: as §1

[15] = system: Klebsiella pneumoniae XNWB 0006; test: as above; conditions: imipenem 4 μg/mL fixed
Method in brief: as §1

[16] = system: Pseudomonas aeruginosa XNWB 0008; test: as above; conditions: imipenem 4 μg/mL fixed
Method in brief: as §1

Structure (SMILES) | The minimum concentration of test compounds combined with ceftazidime (8 μg/mL) for bacteriostasis [1] | The minimum concentration of test compounds combined with ceftazidime (8 μg/mL) for bacteriostasis [2] | The minimum concentration of test compounds combined with ceftazidime (8 μg/mL) for bacteriostasis [3] | The minimum concentration of test compounds combined with ceftazidime (8 μg/mL) for bacteriostasis [4] | The minimum concentration of test compounds combined with ceftazidime (8 μg/mL) for bacteriostasis [5] | The minimum concentration of test compounds combined with ceftazidime (8 μg/mL) for bacteriostasis [6] | The minimum concentration of test compounds combined with ceftazidime (8 μg/mL) for bacteriostasis [7] | The minimum concentration of test compounds combined with ceftazidime (8 μg/mL) for bacteriostasis [8] | The minimum concentration of test compounds combined with imipenem (4 μg/mL) for bacteriostasis [9] | The minimum concentration of test compounds combined with imipenem (4 μg/mL) for bacteriostasis [10] | The minimum concentration of test compounds combined with imipenem (4 μg/mL) for bacteriostasis [11] | The minimum concentration of test compounds combined with imipenem (4 μg/mL) for bacteriostasis [12] | The minimum concentration of test compounds combined with imipenem (4 μg/mL) for bacteriostasis [13] | The minimum concentration of test compounds combined with imipenem (4 μg/mL) for bacteriostasis [14] | The minimum concentration of test compounds combined with imipenem (4 μg/mL) for bacteriostasis [15] | The minimum concentration of test compounds combined with imipenem (4 μg/mL) for bacteriostasis [16]
O=C(NC1CNC1)[C@@H]1CC2(CC2)[C@@H]2CN1C(=O)N2OS(=O)(=O)O [Example 29, (1R,4S)-4-(azetidin-3-ylaminoformyl)-6-oxo-5,7-diazaspiro[bicyclo[3.2.1]octane-2,1′-cyclopropan]-7-yl sulfate] | C (C: 16-128 μg/mL) | A (A: <8 μg/mL) | A (A: <8 μg/mL) | A (A: <8 μg/mL) | A (A: <8 μg/mL) | A (A: <8 μg/mL) | A (A: <8 μg/mL) | B (B: 8-16 μg/mL) | C (C: 16-128 μg/mL) | A (A: <8 μg/mL) | A (A: <8 μg/mL) | A (A: <8 μg/mL) | A (A: <8 μg/mL) | A (A: <8 μg/mL) | A (A: <8 μg/mL) | A (A: <8 μg/mL)
N[C@@H]1CCC(c2nnc([C@@H]3CC4(CC4)[C@@H]4CN3C(=O)N4OS(=O)(=O)O)o2)C1 (stereo in doubt) [Example 18, (1R,4S)-4-(5-((1R,3R)-3-aminocyclopentyl)-1,3,4-oxadiazol-2-yl)-6-oxo-5,7-diazaspiro [bicyclo[3.2.1]octane-2,1′-cyclopropan]-7-yl sulfate] | C (C: 16-128 μg/mL) | A (A: <8 μg/mL) | A (A: <8 μg/mL) | A (A: <8 μg/mL) | B (B: 8-16 μg/mL) | A (A: <8 μg/mL) | A (A: <8 μg/mL) | B (B: 8-16 μg/mL) | B (B: 8-16 μg/mL) | A (A: <8 μg/mL) | A (A: <8 μg/mL) | A (A: <8 μg/mL) | A (A: <8 μg/mL) | A (A: <8 μg/mL) | A (A: <8 μg/mL) | A (A: <8 μg/mL)
N=C1NCC(c2nnc([C@@H]3CC4(CC4)[C@@H]4CN3C(=O)N4OS(=O)(=O)O)o2)N1 (stereo partly drawn) [Example 8, (1R,4S)-4-(5-(2-iminoimidazolidin-4-yl)-1,3,4-oxadiazol-2-yl)-6-oxo-5,7-diazaspiro [bicyclo[3.2.1]octane-2,1′-cyclopropan]-7-yl sulfate] | C (C: 16-128 μg/mL) | A (A: <8 μg/mL) | A (A: <8 μg/mL) | A (A: <8 μg/mL) | A (A: <8 μg/mL) | A (A: <8 μg/mL) | A (A: <8 μg/mL) | B (B: 8-16 μg/mL) | A (A: <8 μg/mL) | A (A: <8 μg/mL) | A (A: <8 μg/mL) | A (A: <8 μg/mL) | A (A: <8 μg/mL) | A (A: <8 μg/mL) | A (A: <8 μg/mL) | A (A: <8 μg/mL)
O=C1N2C[C@H](N1OS(=O)(=O)O)C1(CC1)C[C@H]2c1nnco1 [Example 1, (1R,4S)-4-(1,3,4-oxadiazol-2-yl)-6-oxo-5,7-diazaspiro[bicyclo[3.2.1]octane-2,1′-cyclopropan]-7-yl sulfate] | C (C: 16-128 μg/mL) | A (A: <8 μg/mL) | A (A: <8 μg/mL) | A (A: <8 μg/mL) | B (B: 8-16 μg/mL) | A (A: <8 μg/mL) | A (A: <8 μg/mL) | C (C: 16-128 μg/mL) | C (C: 16-128 μg/mL) | A (A: <8 μg/mL) | A (A: <8 μg/mL) | A (A: <8 μg/mL) | A (A: <8 μg/mL) | A (A: <8 μg/mL) | A (A: <8 μg/mL) | C (C: 16-128 μg/mL)
